In US20050164979A1, “Pharmaceutical composition for ophthalmological and rhinological application” (priority 2001, published 2005):

Experiments:
[1] = tear film tearing time (fluorescein, slit lamp); assay type: in vivo; conditions: concentration of 0.1% by weight to 0.3% by weight
Text: A further diagnostic parameter in regard to diagnosis of the “dry eye” syndrome is the tear film tearing time which makes it possible to provide information about the quality of the tear fluid. In that case for example the tear film is dyed with fluorescein and the patient is then asked to keep the eyes open as long as possible without a blink reflex. A slit lamp is then used to establish when the tear film tears open for the first time. If the period of time is less than 10 seconds, there is the suspicion of the “dry eye” syndrome.

cornea epithelium = assay: wound healing after injury to the cornea epithelium or cauterisation of the cornea; assay type: in vivo; conditions: less scarring
[2] = system: cornea epithelium cells of rabbits; assay: epithelium cell migration; assay type: cell-based; conditions: 0.1% by weight sodium hyaluronate solution
[3] = subjective feeling of patients when treating dry eyes; assay type: in vivo; conditions: 0.1% by weight of sodium hyaluronate in the composition
Text: Aqueous sodium hyaluronate solutions are fluids with non-Newtonian flow properties. By virtue of that physical property, aqueous sodium hyaluronate solutions are excellently well suited as slip and lubricating agents with a good cling effect and a prolonged residence time on the conjunctival and corneal epithelia, without adversely affecting visual efficiency.

[4] = eye drops containing at least 0.1% of sodium hyaluronate; Jpn. J. Ophthalmol. (1996) 40: 62-65; cited from earlier work
[5] = system: cornea-epithelial barrier; conditions: dexpanthenol-bearing eye drops; barrier disturbed by insufficient tear film; Klinische Monatsblätter für Augenheilkunde (1996) 209; 84-88; cited from earlier work

Compound | prolonging the tear film tearing time [1] | wound healing (cornea epithelium) | epithelium cell migration [2] | subjective feeling of the patients [3] | tear film stability [4] | cornea-epithelial barrier function [5]
hyaluronic acid | highly effective | faster and better wound healing | – | – | – | –
sodium hyaluronate | – | faster and better wound healing | increased epithelium cell migration | considerably improves | improvement in tear film stability | –
CC(C)(CO)[C@@H](O)C(=O)NCCCO [dexpanthenol, D-(+)-2,4-dihydroxy-N-(3-hydroxypropyl)-3,5-dimethylbutyramide] | – | – | – | – | – | improve the cornea-epithelial barrier function
